Laboratory results published in patent publication US20160158231A1, “PYRIMIDINE HYDROXY AMIDE COMPOUNDS FOR TREATING PERIPHERAL NEUROPATHY” (VIB VZW, priority 2014, published 2016).
“Also recorded” adds a separate entry of the source.

How the values were obtained:
[1] = test system: acetylated histone 3 (H3) in Neuro2a cells; test: Acetylation status of histone 3 in Neuro2a cells: selectivity; assay type: cell-based, mouse; details: 1 μM; for acetylation of H3 on Western blot: ratio acetylated H3/H4 normalized to DMSO
mutant HSPB1^S135F mice [2] = details: d'Ydewalle et al., 2011; cited from earlier work
[3] = test system: HDAC6 (acetylated α-tubulin) in Neuro2a cells; test: Acetylated α-tubulin in Neuro2a cells (Western blot, staining): potency to inhibit HDAC6; details: for acetylated α-tubulin, staining of treated cells / acetylated α-tubulin levels on Western blot: 1 μM; for acetylated α-tubulin, staining of treated cells: immunofluorescent staining; for relative potency to increase acetylated α-tubulin (dose-response): Western blot, different concentrations; for acetylated α-tubulin levels on Western blot: compared to DMSO
[4] = test system: vincristine-induced neuropathic pain model in rats; test: Vincristine-induced neuropathic pain model in rats (Von Frey test); assay type: in vivo, rat
Experimental: Neuropathic pain is induced by injecting 5 ml/kg Vincristine (50 μg/kg) administered daily IP for a period of 12 days. The development of neuropathic pain is confirmed by measuring of mechanical allodynia (Von Frey test) on study day 13.
Allodynic response to tactile stimulation is assessed using the Von Frey apparatus (Touch Test®).
The rat will be placed in an enclosure and positioned on a metal mesh surface, but allowed to move freely. The rats' cabins are covered with red cellophane to diminish environmental disturbances. The test begins after a cessation of exploratory behavior. The set of Von Frey monofilaments provide an approximate logarithmic scale of actual force and a linear scale of perceived intensity.
The operating principle: when the tip of a fiber of given length and diameter is pressed against the skin at right angles, the force of application increases as long as the researcher continues to advance the probe until the fiber bends. After the fiber bends, the probe continues to advance, causing the fiber to bend more, but without additional force being applied. […] The Touch Test™ Sensory Evaluator can be used on the plantar surfaces of the rat's foot. The animal indicates sensation by pulling back its paw. The minimal force needed to elevate the withdrawal reflex is considered/designated as the value of reference. In order to achieve paw withdrawal, the pressure applied is sometimes greater than 60 g, often requiring the researcher to apply enough pressure with the Von Frey filament to actually lift the paw of the naive animal. Decreases in force needed to induce withdrawal are indicative of allodynia, as the force applied is a non-painful stimulus under normal conditions.

[5] = test system: taxol-induced neuropathic pain model in rats; test: Taxol-induced neuropathic pain model in rats (Von Frey test); assay type: in vivo, rat
Experimental: A study was conducted to extend the previous findings in the vincristine model to a different model of chemotherapy-induced neuropathy, the taxol-induced neuropathic pain model in rats.
Neuropathic pain is induced by a 0.5 ml/kg injection of taxol (2 mg/kg) administered IP on days 0-12. The development of neuropathic pain is confirmed by measuring mechanical allodynia (Von Frey test) on study day 13 as described above.
Pain was assessed using Von-Frey (VF) test for tactile allodynia on study days 13-15. The Rotarod Test was used to assess motor/coordination function.
Neuropathic pain was induced by a 0.5 ml/kg injection of taxol (2 mg/kg) administered IP on study days 0-12. The development of neuropathic pain was confirmed by measuring mechanical allodynia (Von Frey test) on study day 13.

[6] = Rat pharmacokinetic studies; assay type: in vivo; details: plasma, male SD rats, IV 1 mg/kg
Experimental: Male SD rats were fasted overnight. Compounds A and B were dissolved in dimethyl acetamide at 10 times the final concentration, then Solutol HS 15 (BASF) was added to a final concentration of 10%. Finally 80% saline was added and vortexed to achieve a clear solution. For the IV dosing three animals were injected via the foot dorsal vein with 1 mg/kg compound. For the PO dosing 5 mg/kg of compound was delivered by oral gavage. Blood was collected via the tail vein into K2EDTA tubes at 5 minutes, 15 minutes, 30 minutes, 1 hour, 2 hours, 4 hours, 8 hours and 24 hours after dosing. The blood was centrifuged at 2000 g for 5 minutes at 4° C. to obtain plasma. The plasma was extracted with acetonitrile and the level of compound was analyzed by LC/MS/MS. The level of compound in plasma was calculated from a standard curve in rat plasma. The IV clearance and area under the curve were calculated using WinNonLin software. The dose adjusted area under the curve for the IV and oral dosing were used to calculate the oral bioavailability.

[7] = Mouse pharmacokinetic studies (plasma and brain); assay type: in vivo; details: male, C57BL/6, mouse, iv, 1 mg/kg, read-out: Mouse brain to plasma ratio
Experimental: Male C57BL/6 mice were fasted overnight. Compounds A and B were dissolved in dimethyl acetamide at 10 times the final concentration, then Solutol HS 15 (BASF) was added to a final concentration of 10%. Finally 80% saline was added and vortexed to achieve a clear solution. Fifteen animals were injected via the tail vein with 1 mg/kg compound. Blood was collected by retro-orbital bleed at 5 minutes, 15 minutes, 30 minutes, 1 hour, 2 hours, 4 hours, 8 hours and 24 hours after dosing. At 5 minutes, 30 minutes, 1 hour and 4 hours after dosing three animals per time point were sacrificed and brains were removed. The blood was centrifuged at 2000 g for 5 minutes at 4° C. to obtain plasma. Brain samples were homogenized in PBS. The plasma and brain homogenate were extracted with acetonitrile and the level of compound was analyzed by LC/MS/MS. The level of compound in plasma was calculated from a standard curve in rat plasma and the level in brain was calculated from a standard curve in brain homogenate. The area under the curve in plasma and brain were calculated using WinNonLin software. The brain to plasma ratio was determined using the area under the curve values for the two compartments.

HSPB1^S135F DRG neurons [8] = test: Axonal transport of mitochondria in DRG neurons cultured from HSPB1 S135F mice; assay type: cell-based, mouse; details: 2.5 μM; for amount of stationary mitochondria / number of moving mitochondria in the neurites / number of total mitochondria in the neurites: vs DMSO
From the text: Both compounds were able to increase the number of moving mitochondria in the neurites of HSPB1^S135F DRG neurons (FIGS. 4A and 4D).

mutant HSPB1^S135F mice [9] = test: Motor and sensory deficits of mutant HSPB1 S135F mice (CMT2 model); assay type: in vivo, mouse; details: 3 mg/kg, daily IP injection, symptomatic animals
From the text: From the age of 6 months on, mutant HSPB1^S135F mice display motor and sensory deficits (d'Ydewalle et al., 2011). […] A positive trend for all the compounds tested was observed.

[10] = test system: C57B16/J mice, vincristine-induced sensory neuropathy; assay type: in vivo, mouse
Experimental: To study whether treatment with vincristine in vivo could induce a peripheral neuropathy, C57B16/J mice were injected intraperitoneally with vincristine on a daily basis. First, the animals were injected with different doses of vincristine. As sensory rather than motor problems are more pronounced in vincristine associated neuropathy patients, the Sensory Nerve Action Potentials (SNAPs) of the dorsal caudal tail nerve were first evaluated (FIG. 6A).
These animals were co-treated with vincristine and a selective HDAC6-inhibitor (Tubastatin A) to study the therapeutic potential of HDAC6-inhibition. […] A motor phenotype in our mice after vincristine treatment was not detected (results not shown).

HSPB1^S135F DRG neurons [11] = details: d'Ydewalle et al., 2011; cited from earlier work

Structure (SMILES)	acetylation of H3 on Western blot [1]	restoration of motor and sensory defects (mutant HSPB1^S135F mice [2])	acetylated α-tubulin, staining of treated cells [3]	relative potency to increase acetylated α-tubulin (dose-response) [3]	clearance [6] [mL/min/kg]	Kp [7]	levels of acetylated α-tubulin in the neurites (staining) (HSPB1^S135F DRG neurons [8])	amount of stationary mitochondria (HSPB1^S135F DRG neurons [8])	number of moving mitochondria in the neurites (HSPB1^S135F DRG neurons [8])	number of total mitochondria in the neurites (HSPB1^S135F DRG neurons [8])	amplitude of the compound muscle action potential (CMAP) (mutant HSPB1^S135F mice [9])	acetylated α-tubulin levels on Western blot [3]	also measured
CC(/C=C/C(=O)NO)=C\[C@@H](C)C(=O)c1ccc(N(C)C)cc1 [TSA, Trichostatin A, reference compound]	increases	can be restored	increased levels	more potent									acetylated H3 in nuclei, staining of treated cells ([1]; immunofluorescent staining): more acetylated H3
NCC1(CC(=O)O)CCCCC1 [Gabapentin, reference compound]													Von Frey withdrawal force ([4]; 150 mg/kg IP, study day 15, vehicle 14.50±1.51 g): 43.95 ± 5.00 g; Von Frey withdrawal force ([5]; 150 mg/kg IP, 2 hours post dosing, study day 15, vehicle 13.21±1.49 g): 54.90 ± 3.63 g
O=C(NO)c1cnc(NC2(c3cccc(F)c3)CCCCC2)nc1 [Compound B, 2-((1-(3-fluorophenyl)cyclohexyl)amino)-N-hydroxypyrimidine-5-carboxamide]	do not change		increased levels	more potent	38.3	1.28	increased	remains unchanged	increase	increase	statistical significant rescue; also recorded: can restore	significant increase	
O=C(NO)c1cnc(NC2(c3ccccc3)CC2)nc1 [Compound A, N-hydroxy-2-((1-phenylcyclopropyl)amino)pyrimidine-5-carboxamide]	do not change		increased levels		100	1.23	increased	remains unchanged	increase	increase		significant increase	increasing the withdrawal force (Von Frey) ([4]; 3 mg/kg PO b.i.d.): not active; animals waking ability ([4]; 3 mg/kg and 10 mg/kg PO starting from study day 7): trend of improvement; Von Frey withdrawal force ([4]; 10 mg/kg PO b.i.d., study day 13, vehicle 9.45±0.66 g, ns): 11.00 ± 1.07 g; Von Frey withdrawal force ([4]; 10 mg/kg PO b.i.d., study day 15, vehicle 14.50±1.51 g, p<0.05): 33.85 ± 6.96 g; Von Frey force ([4]; 10 mg/kg, study days 14-15): significantly decreased; Von Frey withdrawal force ([5]; 3 mg/kg PO b.i.d., 2 hours post dosing, study day 15, vehicle 13.21±1.49 g): 53.20 ± 2.78 g; Von Frey withdrawal force ([5]; 10 mg/kg PO b.i.d., study day 13 post dosing, vehicle 15.33±2.13 g): 53.11 ± 4.77 g; reversing pain (conclusion) ([5]; doses of 3 mg/kg and 10 mg/kg): active in reversing pain; sensory neuropathy induced by vincristine (SNAP) ([10]; 25 mg/kg/day intraperitoneal, one week, co-treatment with vincristine): seems to reduce the sensory neuropathy
CC[C@]1(O)C[C@H]2CN(CCc3c([nH]c4ccccc34)[C@@](C(=O)OC)(c3cc4c(cc3OC)N(C=O)[C@H]3[C@@](O)(C(=O)OC)[C@H](OC(C)=O)[C@]5(CC)C=CCN6CC[C@]43[C@@H]65)C2)C1 [vincristine]													reduction in SNAP amplitude compared to vehicle treated mice ([10]; C57B16/J, mouse, in vivo, ip, 7 days): 35.4%; motor phenotype ([10]; mouse, in vivo): not detected; SNAP latencies ([10]; mouse, in vivo, ip): unaffected
CN1CCc2c(c3ccccc3n2Cc2ccc(C(=O)NO)cc2)C1 [Tubastatin A]		can be restored									can restore		rescue of the axonal transport defect of mitochondria (HSPB1^S135F DRG neurons [11]): could be rescued
